# The source made the active and inactive calls. The calls are words filed in the database; no cut-off is given here.
# Columns and labels:
# [1] = target: T1, Melanocyte-stimulating hormone receptor (Homo sapiens, UniProt Q01726); assay: Displacement of [125I]NDP-alpha-MSH from human MC1 receptor expressed in CHO cells; type: cell-based
# Target sequence in this assay (Q01726 whole entry): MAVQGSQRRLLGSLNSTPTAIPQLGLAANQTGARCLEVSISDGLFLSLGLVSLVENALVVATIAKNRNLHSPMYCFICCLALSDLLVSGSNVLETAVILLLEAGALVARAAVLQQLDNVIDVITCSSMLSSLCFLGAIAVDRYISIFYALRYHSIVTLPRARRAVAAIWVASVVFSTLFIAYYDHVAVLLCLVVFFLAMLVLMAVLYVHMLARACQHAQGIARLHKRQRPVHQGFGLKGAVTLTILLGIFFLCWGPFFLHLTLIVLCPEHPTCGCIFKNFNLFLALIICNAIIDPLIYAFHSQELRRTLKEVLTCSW
# [2] = target: T2, Melanocortin receptor 3 (Homo sapiens, UniProt P41968); assay: Displacement of [125I]NDP-alpha-MSH from human MC3 receptor expressed in CHO cells; type: cell-based
# [3] = target: T3, Melanocortin receptor 4 (Homo sapiens, UniProt P32245); assay: Displacement of [125I]NDP-alpha-MSH from human MC4 receptor expressed in CHO cells; type: cell-based
# [4] = target: T4, Melanocortin receptor 5 (Homo sapiens, UniProt P33032); assay: Displacement of [125I]NDP-alpha-MSH from human MC5 receptor expressed in CHO cells; type: cell-based
# [5] = target: T1, Melanocyte-stimulating hormone receptor; assay: Agonist activity at human MC1 receptor expressed in CHO cells assessed as cAMP accumulation; type: functional, cell-based
# Target sequence in this assay (Q01726 whole entry): as above
# [6] = target: T1, Melanocyte-stimulating hormone receptor; assay: Agonist activity at human MC1 receptor expressed in CHO cells assessed as cAMP accumulation at 10 uM relative to alpha-MSH; type: functional, cell-based
# Target sequence in this assay (Q01726 whole entry, looked up): as the sequence (Q01726 whole entry) above
# [7] = target: T2, Melanocortin receptor 3; assay: Agonist activity at human MC3 receptor expressed in CHO cells assessed as cAMP accumulation at 10 uM relative to alpha-MSH; type: functional, cell-based
# [8] = target: T3, Melanocortin receptor 4; assay: Agonist activity at human MC4 receptor expressed in CHO cells assessed as cAMP accumulation at 10 uM relative to alpha-MSH; type: functional, cell-based
# [9] = target: T4, Melanocortin receptor 5; assay: Agonist activity at human MC5 receptor expressed in CHO cells assessed as cAMP accumulation at 10 uM relative to alpha-MSH; type: functional, cell-based
# [10] = Oral bioavailability in Sprague-Dawley rat at 1 mg/kg and 4 mg/kg; type: ADME, organism-based; conditions: in vivo
# [11] = Clearance in Sprague-Dawley rat at 1 mg/kg, iv and 4 mg/kg, po; type: ADME, organism-based; conditions: in vivo
# [12] = Volume of distribution in Sprague-Dawley rat at 1 mg/kg, iv and 4 mg/kg, po; type: ADME, organism-based; conditions: in vivo, read-out: Vdss
# [13] = Half life in Sprague-Dawley rat at 1 mg/kg, iv and 4 mg/kg, po; type: ADME, organism-based; conditions: in vivo
# [14] = target: T3, Melanocortin receptor 4; assay: Agonist activity at human MC4 receptor expressed in CHO cells assessed as cAMP accumulation; type: functional, cell-based
# [15] = target: T4, Melanocortin receptor 5; assay: Agonist activity at human MC5 receptor expressed in CHO cells assessed as cAMP accumulation; type: functional, cell-based
# [16] = Oral bioavailability in Beagle dog at 1 mg/kg; type: ADME, organism-based, Canis lupus familiaris; conditions: in vivo
# [17] = Clearance in Beagle dog at 1 mg/kg, po; type: ADME, organism-based, Canis lupus familiaris; set-up: dose 1 mg/kg, route oral; conditions: in vivo
# [18] = tested on: Canis familiaris; assay: Volume of distribution in Beagle dog at 1 mg/kg, po; type: ADME, organism-based, Canis lupus familiaris; set-up: dose 1 mg/kg, route oral; conditions: in vivo
# [19] = Half life in Beagle dog at 1 mg/kg, po; type: ADME, organism-based, Canis lupus familiaris; set-up: dose 1 mg/kg, route oral; conditions: in vivo
# [20] = Oral bioavailability in rhesus monkey at 1 mg/kg; type: ADME, organism-based, Macaca mulatta; conditions: in vivo
# [21] = Clearance in rhesus monkey at 1 mg/kg, po; type: ADME, organism-based, Macaca mulatta; set-up: dose 1 mg/kg, route oral; conditions: in vivo
# [22] = tested on: Rhesus monkey; assay: Volume of distribution in rhesus monkey at 1 mg/kg, po; type: ADME, organism-based, Macaca mulatta; set-up: dose 1 mg/kg, route oral; conditions: in vivo
# [23] = Half life in rhesus monkey at 1 mg/kg, po; type: ADME, organism-based, Macaca mulatta; set-up: dose 1 mg/kg, route oral; conditions: in vivo
# [24] = tested on: Mus musculus; assay: Antiobesity activity in wild type mouse assessed as reduction in food intake at 20 mg/kg after 4 hrs post dosing relative to control; type: functional; set-up: scale not given: the % may be the effect or the level left
# [25] = tested on: Mus musculus; assay: Antiobesity activity in MC3R/MC4R knockout mouse assessed as reduction in food intake at 20 mg/kg after 4 hrs post dosing relative to control; type: functional, organism-based; set-up: dose 20 mg/kg
# [26] = tested on: Rattus norvegicus; assay: Antiobesity activity in diet-induced obesity rat model assessed as reduction in body weight at 5 mg/kg, po BID for 14 days relative to control; type: functional, organism-based; set-up: dose 5 mg/kg
# [27] = tested on: Rattus norvegicus; assay: Antiobesity activity in diet-induced obesity rat model assessed as reduction in body weight at 10 mg/kg, po BID for 14 days relative to control; type: functional, organism-based; set-up: dose 10 mg/kg
# [28] = tested on: Rattus norvegicus; assay: Antiobesity activity in diet-induced obesity rat model assessed as reduction in body weight at 20 mg/kg, po BID for 14 days relative to control; type: functional, organism-based; set-up: dose 20 mg/kg
# [29] = Plasma concentration in rat at 10 mg/kg, iv after 15 mins; type: ADME, organism-based; set-up: dose 10 mg/kg, route intravenous
# [30] = tested on: Mus musculus; assay: Increase in erectile activity in CN-stimulated mouse at 10 mg/kg, iv; type: functional, organism-based; set-up: dose 10 mg/kg
# [31] = tested on: Mus musculus; assay: Antiobesity activity in diet-induced obesity mouse model assessed as reduction in food intake at 20 mg/kg after 4 hrs post dosing relative to control; type: functional, organism-based; set-up: dose 20 mg/kg
# [32] = target: Voltage-gated inwardly rectifying potassium channel KCNH2 (Homo sapiens, UniProt Q12809); assay: Inhibition of human ERG
# [33] = Binding affinity to calcium channel
# [34] = Binding affinity to sodium channel
# [35] = tested on: Mus musculus; assay: Increase in erectile activity in CN-stimulated mouse at 0.3 mg/kg, iv; type: functional, organism-based; set-up: dose 0.3 mg/kg
# [36] = Plasma concentration in rat at 0.3 mg/kg, iv after 15 mins; type: ADME, organism-based; set-up: dose 0.3 mg/kg, route intravenous
# T4 sequence (P33032 whole entry): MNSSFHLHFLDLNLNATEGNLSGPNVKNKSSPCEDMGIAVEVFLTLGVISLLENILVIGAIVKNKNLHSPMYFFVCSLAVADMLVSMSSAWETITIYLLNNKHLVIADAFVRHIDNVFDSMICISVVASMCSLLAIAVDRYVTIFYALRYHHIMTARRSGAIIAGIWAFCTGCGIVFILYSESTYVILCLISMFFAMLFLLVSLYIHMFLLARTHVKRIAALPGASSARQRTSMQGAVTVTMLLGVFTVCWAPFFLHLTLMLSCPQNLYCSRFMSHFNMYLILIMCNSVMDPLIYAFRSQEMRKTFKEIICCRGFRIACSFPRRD
# T2 sequence (P41968 whole entry): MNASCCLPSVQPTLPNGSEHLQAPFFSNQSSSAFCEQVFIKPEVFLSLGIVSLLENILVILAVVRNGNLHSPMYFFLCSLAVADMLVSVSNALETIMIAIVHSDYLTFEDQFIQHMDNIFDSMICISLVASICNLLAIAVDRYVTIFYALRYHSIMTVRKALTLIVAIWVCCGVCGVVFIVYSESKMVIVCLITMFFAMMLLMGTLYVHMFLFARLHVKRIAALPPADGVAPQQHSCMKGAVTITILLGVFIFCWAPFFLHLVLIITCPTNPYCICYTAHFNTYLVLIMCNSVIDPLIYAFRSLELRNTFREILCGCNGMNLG
# T3 sequence (P32245 whole entry): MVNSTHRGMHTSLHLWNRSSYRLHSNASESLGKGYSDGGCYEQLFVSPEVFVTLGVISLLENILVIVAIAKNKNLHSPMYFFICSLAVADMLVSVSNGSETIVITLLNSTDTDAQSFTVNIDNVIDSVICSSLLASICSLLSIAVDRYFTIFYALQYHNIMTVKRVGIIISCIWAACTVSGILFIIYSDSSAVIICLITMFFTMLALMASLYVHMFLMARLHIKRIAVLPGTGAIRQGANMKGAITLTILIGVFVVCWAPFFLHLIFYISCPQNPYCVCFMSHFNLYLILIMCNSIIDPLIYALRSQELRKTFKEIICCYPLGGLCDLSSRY
# Chain of Voltage-gated inwardly rectifying potassium channel KCNH2 (Q12809 whole entry): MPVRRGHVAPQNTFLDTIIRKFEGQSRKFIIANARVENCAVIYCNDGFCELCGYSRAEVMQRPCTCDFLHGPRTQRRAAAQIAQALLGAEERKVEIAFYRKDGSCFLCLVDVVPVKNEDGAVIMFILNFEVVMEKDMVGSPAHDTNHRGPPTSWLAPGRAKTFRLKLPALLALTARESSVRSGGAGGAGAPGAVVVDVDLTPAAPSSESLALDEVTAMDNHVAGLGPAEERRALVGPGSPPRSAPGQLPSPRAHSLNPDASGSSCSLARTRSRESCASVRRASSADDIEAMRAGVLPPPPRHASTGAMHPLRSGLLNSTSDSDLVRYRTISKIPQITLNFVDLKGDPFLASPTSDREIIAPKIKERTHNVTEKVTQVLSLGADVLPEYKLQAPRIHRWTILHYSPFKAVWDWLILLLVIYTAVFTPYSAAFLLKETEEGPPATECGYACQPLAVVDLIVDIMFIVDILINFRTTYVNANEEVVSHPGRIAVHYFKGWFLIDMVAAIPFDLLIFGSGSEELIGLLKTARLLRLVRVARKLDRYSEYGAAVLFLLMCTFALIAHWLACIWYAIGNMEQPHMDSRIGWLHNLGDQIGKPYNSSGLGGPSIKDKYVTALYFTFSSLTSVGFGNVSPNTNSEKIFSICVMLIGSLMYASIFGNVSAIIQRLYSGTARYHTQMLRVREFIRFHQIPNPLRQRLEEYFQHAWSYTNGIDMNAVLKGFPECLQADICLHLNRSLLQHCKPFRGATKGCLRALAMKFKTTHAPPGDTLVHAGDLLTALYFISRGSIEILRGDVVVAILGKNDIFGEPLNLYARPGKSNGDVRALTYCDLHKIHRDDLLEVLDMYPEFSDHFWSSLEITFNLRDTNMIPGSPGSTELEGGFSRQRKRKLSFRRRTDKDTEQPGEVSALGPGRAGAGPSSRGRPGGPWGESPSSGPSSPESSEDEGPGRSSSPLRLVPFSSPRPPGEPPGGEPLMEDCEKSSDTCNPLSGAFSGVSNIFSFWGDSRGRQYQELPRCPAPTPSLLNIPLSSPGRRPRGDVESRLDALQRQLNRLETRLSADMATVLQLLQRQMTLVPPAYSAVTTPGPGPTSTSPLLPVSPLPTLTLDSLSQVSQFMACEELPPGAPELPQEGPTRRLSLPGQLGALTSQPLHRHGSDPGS
Compound,IC50 [1] [nM],IC50 [2] [nM],IC50 [3] [nM],IC50 [4] [nM],EC50 [5] [nM],Activity [6] [%],Activity [7] [%],Activity [8] [%],Activity [9] [%],bioavailability [10] [%],clearance [11] [mL/min/kg],Vd [12] [L/kg],half-life [13] [h],EC50 [14] [nM],EC50 [15] [nM],further results
CC[C@@H]1CN(C(=O)N[C@H](Cc2ccc(F)cc2)C(=O)N2CCC(C(=O)NC(C)(C)C)(C3CCCCC3)CC2)C[C@@H](CC)N1,2800,390,5.1,1300,400,31,0,18,1,18,62,8.2,1.8,,,
C[C@@H]1CN(C(=O)N[C@H](Cc2ccc(F)cc2)C(=O)N2CCC(C(=O)NC(C)(C)C)(C3CCCCC3)CC2)C[C@H](C)N1,5100,650,4.9,850,,30,3.6,59,22,28,35,4.7,2,22,> 3000,bioavailability [16]: 118%; CL/F [17]: 5.4 mL/min/kg; Vdss [18]: 1.8 L/kg; half-life [19]: 5.1 h; bioavailability [20]: 20%; CL/F [21]: 5.2 mL/min/kg; Vdss [22]: 1 L/kg; half-life [23]: 5.3 h; Activity [24]: 37%; Activity [25]: inactive; Activity [26]: Active; Activity [27]: Active; Activity [28]: Active; concentration at 0.25 h [29]: 4700 nM; Activity [30]: inactive; Activity [31]: Active; INH [32]: > 10 µM; Activity [33]: 9.6 µM; Activity [34]: 6.8 µM
CC[C@H](NC(C)=O)c1cc(Cl)ccc1C1CCN(C(=O)[C@@H]2CN(C(C)(C)C)C[C@H]2c2ccc(F)cc2F)CC1,,,,,,,,,,,,,,,,Activity [27]: Active; Activity [30]: Active; Activity [35]: Active; concentration at 0.25 h [36]: 47 nM
C[C@H]1CN(C(=O)N[C@H](Cc2ccc(F)cc2)C(=O)N2CCC(C(=O)NC(C)(C)C)(C3CCCCC3)CC2)C[C@H](C)N1,3300,740,12,1400,250,46,2,58,30,,,,,58,1400,
CC[C@@H]1CN(C(=O)N[C@H](Cc2ccc(F)cc2)C(=O)N2CCC(C(=O)NC(C)(C)C)(C3CCCCC3)CC2)C[C@H](CC)N1,2100,230,4.7,430,420,24,1.2,41,14,46,36,4.7,1.7,13,,
C[C@@H]1CN(C(=O)N[C@H](Cc2ccc(Cl)cc2)C(=O)N2CCC(C(=O)NC(C)(C)C)(C3CCCCC3)CC2)C[C@H](C)N1,1500,33,0.78,54,280,24,1.3,15,26,,,,,,210,
C[C@@H]1CN(C(=O)N[C@H](Cc2ccc(F)cc2)C(=O)N2CCC(C(=O)NC(C)(C)C)(C3CCCCC3)CC2)C[C@H](C)N1C,7800,760,16,1400,910,14,0.6,21,14,,,,,60,,
C[C@@H]1CN(C(=O)N[C@H](Cc2ccc(F)cc2)C(=O)N2CCC(C(=O)NC(C)(C)C)(C3CCCCC3)CC2)C[C@@H](C)N1,2100,970,11,1400,260,39,2.8,66,31,1.9,43,9.2,4.2,18,1000,
